{
  "source": "patent US5260271A",
  "about": "“Nisin compositions for use as enhanced broad range bactericides” (Applied Microbiology, Inc., priority 1992, dated 1993)",
  "key": {"Listeria monocytogenes": {"test_system": "Listeria monocytogenes", "experiment": "Bactericidal activity towards Listeria monocytogenes in milk", "type": "cell-based", "details": "for % Survival 2 hr: L. monocytogenes in milk at 37° C.", "protocol": "(§1) All tests in the following examples were performed at 37° C. The efficacy of the enhanced broad range bactericides was determined by assaying bactericidal activity as measured by the percent bacterial survival after treatment with the bactericide. Generally, after incubation of a 10^7 cell per ml suspension of target species with the novel bactericide for specified lengths of time, bacteria were collected by centrifugation for 2 minutes. […] Surviving bacteria were determined by scoring colony forming units (CFU) after incubation for 24-48 hours at 37° C. An effective bactericide according to this invention is one which allows less than 0.1% of the initial viable count of the bacteria to survive.\nAn example of where the application of nisin is limited by its available activity is illustrated by the data in Table 15B.\n(§2) Incubations were in milk at 37° C."}, "Streptococcus agalactiae": {"test_system": "Streptococcus agalactiae", "experiment": "Bactericidal activity towards Streptococcus agalactiae in milk", "type": "cell-based", "details": "for % survival at 2h: S. agalactiae in milk at 37° C.", "protocol": "as §1\nHowever, the combination of the two agents, 0.1% monolaurin and nisin 0.2 μg/ml, is extremely potent towards S. agalactiae. […] Thus, when the application of nisin is limited by its available activity, a bactericide comprising nisin with a surfactant can be expected to be more useful.\nas §2"}, "E. coli": {"test_system": "E. coli", "experiment": "Bactericidal activity, percent bacterial survival of E. coli suspension", "type": "cell-based, Escherichia coli", "protocol": "as §1, with “C.” for “C. An effective bactericide according to this invention is one which allows less than 0.1% of the initial viable count of the bacteria to survive.”\nThe effects of the bactericide were measured as a function of percentage bacteria survival after 2 hours.\nIncubations were performed in 20 mM Tris, […] at 37° C."}},
  "data": [
    {"molecule": "monooleate", "values": [
      {"measurement": "% Survival 2 hr", "setting": "Listeria monocytogenes; Nisin 0, Monooleate 0.1%", "value": 67, "unit": "%"},
      {"measurement": "% Survival 2 hr", "setting": "Listeria monocytogenes; Nisin 0, Monooleate 1.0%", "value": 63, "unit": "%"},
      {"measurement": "bactericidal activity towards L. monocytogenes", "setting": "Listeria monocytogenes; monooleate by itself, in milk", "value": "no bactericidal activity"}
    ]},
    {"molecule": "CCCCCCCCCCCC(=O)OCC(O)CO", "note": "(centres unmarked) [Monolaurin, monolaurin]", "values": [
      {"measurement": "% survival at 2h", "setting": "Streptococcus agalactiae; Nisin 0, Monolaurin 0.01%", "value": 100, "unit": "%"},
      {"measurement": "% survival at 2h", "setting": "Streptococcus agalactiae; Nisin 0, Monolaurin 0.1%", "value": 4.5, "unit": "%"},
      {"measurement": "bactericidal activity towards Streptococcus agalactiae", "setting": "Streptococcus agalactiae; monolaurin at concentrations up to 0.1%, in milk", "value": "little significant bactericidal activity"}
    ]},
    {"molecule": "Triton X-100", "values": [
      {"measurement": "Percentage E. coli Survival at 2 hours", "setting": "E. coli; Nisin 0, EDTA 0 mM, Triton X-100 1.0%, 20 mM Tris pH 8.0", "value": 100, "unit": "%"},
      {"measurement": "bactericidal activity towards E. coli", "setting": "E. coli; Triton X-100 alone, tests #3 and #4 of Table 4", "value": "no significant bactericidal activity"}
    ]}
  ]
}
